Test: xn = mol fraction of the nth substance listed
Details: 101 kPa

CS(C)=O + CC[NH+](CC)CC.O=S(=O)([O-])O
x1 = 1
Details	speed of sound [m/s]	viscosity [mPa·s]
298.15 K	1496	1.99
303.15 K	1472	1.8
308.15 K	1460	1.65

CC[NH+](CC)CC.O=S(=O)([O-])O + CS(C)=O
Details	speed of sound, 298.15 K [m/s]	speed of sound, 303.15 K [m/s]	speed of sound, 308.15 K [m/s]	viscosity, 298.15 K [mPa·s]	viscosity, 303.15 K [mPa·s]	viscosity, 308.15 K [mPa·s]
x1 = 0.011	–	–	1468	–	–	2.8
x2 = 0	1874	1871	1866	235	153	138
x2 = 0.0244	–	1867	1863	–	148	134
x2 = 0.0557	1861	1859	1857	219	142	129
x2 = 0.108	1852	1850	1850	204	132	120
x2 = 0.1556	1838	1836	1830	190	123	112
x2 = 0.199	–	1820	1822	–	115	105
x2 = 0.2473	1812	1808	–	165	106	–
x2 = 0.3279	1786	1778	1778	144	92	85.4
x2 = 0.4004	1758	1748	–	125	79.3	–
x2 = 0.4964	1720	1708	1706	101	63.8	60.6
x2 = 0.5798	1684	1670	1666	81.1	51.1	49.2
x2 = 0.653	1652	–	1632	64.6	–	39.59
x2 = 0.7376	1614	1596	1590	46.7	29.42	29.13
x2 = 0.7812	1594	1576	1568	38.2	24.22	23.96
x2 = 0.8269	1574	1554	1546	29.63	19.13	18.72
x2 = 0.8772	1550	1530	1520	20.8	13.67	13.35
x2 = 0.9156	1534	1514	1502	14.31	9.78	9.41
x2 = 0.9539	–	1495	1484	–	6.27	5.84

Reference: a compilation of properties of binary mixtures (doi:10.1016/j.tca.2013.02.002)
